From paper PMC8876975, “EGFR and COX-2 Dual Inhibitor: The Design, Synthesis, and Biological Evaluation of Novel Chalcones” (Molecules, 2022)
Where two headings read alike, the source gives them in different places.

Legend:
[1] = tested on: human colon cancer (HT-29); experiment: MTT cytotoxicity assay, HT-29; type: cell-based; settings: Homo sapiens; HT-29, MTT, 72 h; read-out: Antiproliferative Activity IC50 ± SEM, HT-29
[2] = Cell viability % (MTT, normal cell line); settings: human, MRC5 normal fetal lung fibroblast cells
[3] = tested on: pancreatic cancer (PaCa-2); experiment: MTT cytotoxicity assay, PaCa-2; type: cell-based; settings: PaCa-2, MTT, 72 h; read-out: Antiproliferative Activity IC50 ± SEM, PaCa-2
[4] = tested on: pancreatic ductal cancer (Panc-1); experiment: MTT cytotoxicity assay, Panc-1; type: cell-based; settings: Homo sapiens; Panc-1, MTT, 72 h; read-out: Antiproliferative Activity IC50 ± SEM, Panc-1
[5] = tested on: human malignant melanoma (A375); experiment: MTT cytotoxicity assay, A375; type: cell-based; settings: Homo sapiens, A-375, 72 h, read-out: Antiproliferative Activity IC50 ± SEM, A375
lung cancer (H-460) = experiment: MTT cytotoxicity assay, H-460; type: cell-based; settings: Homo sapiens, NCI-H460; H-460, MTT, 72 h; read-out: Antiproliferative Activity IC50 ± SEM, H-460
[6] = biological target: T1, human recombinant sPLA2-V (Homo sapiens, UniProt P39877); experiment: Secretory PLA2-V activity assay (Ellman's photometric method)
T1 sequence (P39877 21-138): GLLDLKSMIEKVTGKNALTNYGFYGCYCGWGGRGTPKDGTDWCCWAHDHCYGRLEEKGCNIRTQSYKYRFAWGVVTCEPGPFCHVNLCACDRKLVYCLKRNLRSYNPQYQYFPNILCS

human recombinant COX-2 = biological target: T2, human recombinant COX-2 (Homo sapiens, UniProt P35354); experiment: Cyclooxygenase assay (PGE2 quantification), COX-2; type: biochemical; settings: mean ± SD; n = 3
T2 construct: purchased Cayman Chemicals
T2 sequence (P35354 18-604): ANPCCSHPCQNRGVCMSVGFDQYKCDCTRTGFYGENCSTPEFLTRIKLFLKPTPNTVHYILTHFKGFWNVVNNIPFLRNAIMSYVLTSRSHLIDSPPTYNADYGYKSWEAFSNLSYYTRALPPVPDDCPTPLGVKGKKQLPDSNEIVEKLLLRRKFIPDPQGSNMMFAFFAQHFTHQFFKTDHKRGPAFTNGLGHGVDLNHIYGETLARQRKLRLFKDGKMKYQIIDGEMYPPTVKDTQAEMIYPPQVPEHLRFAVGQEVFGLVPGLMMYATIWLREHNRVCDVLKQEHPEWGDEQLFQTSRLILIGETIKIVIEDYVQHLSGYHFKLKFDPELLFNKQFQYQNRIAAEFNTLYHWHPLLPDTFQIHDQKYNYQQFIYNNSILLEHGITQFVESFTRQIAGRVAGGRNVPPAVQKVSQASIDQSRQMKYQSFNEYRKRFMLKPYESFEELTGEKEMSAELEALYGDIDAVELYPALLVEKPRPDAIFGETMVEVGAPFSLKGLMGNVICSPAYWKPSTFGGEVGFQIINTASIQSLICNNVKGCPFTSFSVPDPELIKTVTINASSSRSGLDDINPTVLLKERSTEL

Sheep-derived COX-1 = biological target: T3, Sheep-derived COX-1 (Ovis aries, UniProt P05979); experiment: Cyclooxygenase assay (PGE2 quantification), COX-1
T3 sequence (P05979 25-600): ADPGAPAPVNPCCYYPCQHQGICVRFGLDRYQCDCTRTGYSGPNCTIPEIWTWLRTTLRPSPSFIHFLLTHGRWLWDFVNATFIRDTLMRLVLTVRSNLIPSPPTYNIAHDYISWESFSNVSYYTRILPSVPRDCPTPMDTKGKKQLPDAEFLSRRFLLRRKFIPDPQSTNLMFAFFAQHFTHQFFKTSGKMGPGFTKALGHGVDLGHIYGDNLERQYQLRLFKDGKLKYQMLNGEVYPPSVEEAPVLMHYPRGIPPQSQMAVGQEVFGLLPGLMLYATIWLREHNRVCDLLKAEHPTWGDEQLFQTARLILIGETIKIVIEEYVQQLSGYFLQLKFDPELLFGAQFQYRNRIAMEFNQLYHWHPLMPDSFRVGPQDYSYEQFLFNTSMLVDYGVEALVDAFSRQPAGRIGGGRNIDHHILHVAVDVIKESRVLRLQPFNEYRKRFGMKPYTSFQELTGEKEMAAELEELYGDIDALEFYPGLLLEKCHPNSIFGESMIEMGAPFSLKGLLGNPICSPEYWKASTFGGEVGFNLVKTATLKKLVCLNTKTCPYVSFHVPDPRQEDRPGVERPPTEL

EGFR = biological target: T4, EGFR (Homo sapiens, UniProt P00533); experiment: EGFR kinase inhibition assay (EGFR Kinase Assay Kit); type: biochemical; settings: triplicates; read-out: EGFR Inhibition IC50 ± SEM
T4 construct: purchased PBS Bioscience (so in the source)

TNF-α = experiment: ELISA, LPS-induced TNF-α release in RAW264.7 macrophages; type: cell-based, mouse
IL-6 = experiment: ELISA, LPS-induced IL-6 release in RAW264.7 macrophages; type: cell-based, mouse; settings: Mus musculus, RAW264.7; RAW 264.7, compound 10 µM for 2 h, then LPS 0.5 µg/mL for 22 h

T4 sequence (P00533 25-1210): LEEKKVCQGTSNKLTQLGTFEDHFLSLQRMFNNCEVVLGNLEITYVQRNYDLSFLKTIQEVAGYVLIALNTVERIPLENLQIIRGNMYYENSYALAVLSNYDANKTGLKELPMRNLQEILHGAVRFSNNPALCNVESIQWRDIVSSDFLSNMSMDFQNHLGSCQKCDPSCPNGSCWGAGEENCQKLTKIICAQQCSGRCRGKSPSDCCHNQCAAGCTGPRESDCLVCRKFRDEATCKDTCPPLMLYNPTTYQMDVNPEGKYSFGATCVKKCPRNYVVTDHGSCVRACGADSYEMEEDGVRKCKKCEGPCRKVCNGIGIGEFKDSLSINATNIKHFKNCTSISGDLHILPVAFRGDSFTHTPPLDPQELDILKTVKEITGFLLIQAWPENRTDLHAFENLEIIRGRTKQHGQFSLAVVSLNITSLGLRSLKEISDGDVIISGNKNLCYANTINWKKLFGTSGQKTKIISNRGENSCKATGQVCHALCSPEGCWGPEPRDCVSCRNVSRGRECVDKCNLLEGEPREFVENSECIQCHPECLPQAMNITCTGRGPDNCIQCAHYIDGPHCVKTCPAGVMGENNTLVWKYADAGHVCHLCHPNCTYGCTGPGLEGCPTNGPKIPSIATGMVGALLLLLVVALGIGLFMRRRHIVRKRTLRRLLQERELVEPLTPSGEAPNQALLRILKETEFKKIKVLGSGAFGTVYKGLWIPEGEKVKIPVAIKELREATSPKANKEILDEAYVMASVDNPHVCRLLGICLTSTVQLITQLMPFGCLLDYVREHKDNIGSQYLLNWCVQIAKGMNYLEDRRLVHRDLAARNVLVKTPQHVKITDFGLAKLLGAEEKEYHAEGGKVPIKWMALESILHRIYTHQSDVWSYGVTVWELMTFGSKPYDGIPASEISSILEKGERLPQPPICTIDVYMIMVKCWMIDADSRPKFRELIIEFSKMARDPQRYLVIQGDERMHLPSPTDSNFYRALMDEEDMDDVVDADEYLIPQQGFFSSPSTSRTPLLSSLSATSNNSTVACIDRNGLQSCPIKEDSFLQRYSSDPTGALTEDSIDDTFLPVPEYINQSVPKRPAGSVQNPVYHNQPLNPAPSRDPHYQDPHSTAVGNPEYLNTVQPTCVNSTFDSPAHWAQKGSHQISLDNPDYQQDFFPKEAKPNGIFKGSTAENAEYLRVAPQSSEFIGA

Structure (SMILES)	IC50 [6]	IC50 (human recombinant COX-2)	IC50 (Sheep-derived COX-1)	IC50 (EGFR)	IC50 [1]	viability at 72 h [2]	IC50 [3]	IC50 [4]	IC50 [5]	IC50 (lung cancer (H-460))	inhibition at 10 µM (TNF-α; Mus musculus, RAW264.7, RAW 264.7, compound 10 µM for 2 h, then LPS 0.5 µg/mL for 22 h)	Relative Amount of LPS (TNF-α) (TNF-α; RAW 264.7, compound 10 µM, TNF-α relative to LPS control = 100)	inhibition at 10 µM (IL-6)	IC50 ([6]; read-out: sPLA2-V IC50, mean ± SD, n = 3)
CC(=O)c1cccc(/N=N/c2ccc(O)cc2)c1 [Compound A1]	–	–	–	–	8.3 ± 2.1 µM	80.3 ± 1.6%	8.6 ± 1.2 µM	9.1 ± 1.8 µM	9.3 ± 1.9 µM	7.4 ± 2.2 µM	–	–	–	–
CC(=O)c1cccc(/N=N/c2ccc(O)cc2O)c1 [Compound A2, (E)-1-(3-((2,4-Dihydroxyphenyl)daizenyl)phenyl)ethan-1-one]	7.25 ± 1.24 µM	27.9 ± 1.65 µM	22.2 ± 2.45 µM	–	9.2 ± 2.5 µM	90.4 ± 1.9%	9.6 ± 1.5 µM	9.6 ± 2 µM	8.4 ± 2.1 µM	5.9 ± 2.4 µM	–	–	–	–
CC(=O)c1cccc(/N=N/c2c(O)ccc3ccccc23)c1 [Compound A5, (E)-1-(3-((2-Hydroxynaphthalen-1-yl)diazenyl)phenyl)ethan-1-one]	4.24 ± 1.16 µM	14.2 ± 1.79 µM	9.23 ± 1.64 µM	–	11.9 ± 2.5 µM	88.2 ± 1.2%	10.5 ± 1.9 µM	9.6 ± 1.8 µM	9.6 ± 2.4 µM	9.2 ± 1.2 µM	–	–	–	–
CC(=O)c1cccc(/N=N/c2ccc(O)c3ncccc23)c1 [Compound A6, (E)-1-(3-((8-Hydroxyquinolin-5-yl)diazenyl)phenyl)ethan-1-one]	7.42 ± 1.41 µM	5.21 ± 1.2 µM	4.85 ± 1.2 µM	–	7.6 ± 1.4 µM	82.5 ± 1.7%	9.5 ± 1.9 µM	6.9 ± 2.1 µM	9.5 ± 1.5 µM	8.8 ± 2.3 µM	–	–	–	–
C[C@@H]1C[C@H]2[C@@H]3CCC4=CC(=O)C=C[C@]4(C)[C@@]3(F)[C@@H](O)C[C@]2(C)[C@@]1(O)C(=O)CO [Dexamethasone, reference compound]	–	–	–	–	–	–	–	–	–	–	–	–	–	0.57 ± 0.06 µM
C#Cc1cccc(Nc2ncnc3cc(OCCOC)c(OCCOC)cc23)c1 [Erlotinib, reference compound]	–	–	–	–	0.07 ± 0.04 µM	–	0.06 ± 0.04 µM	0.05 ± 0.02 µM	4.14 ± 1.2 µM	0.04 ± 0.02 µM	–	–	–	–

Further lines, with some results ahead:

IC50 [6]	IC50 (human recombinant COX-2)	IC50 (Sheep-derived COX-1)	IC50 (EGFR)	Structure (SMILES)	IC50 [1]	viability at 72 h [2]	IC50 [3]	IC50 [4]	IC50 [5]	IC50 (lung cancer (H-460))	inhibition at 10 µM (TNF-α; Mus musculus, RAW264.7, RAW 264.7, compound 10 µM for 2 h, then LPS 0.5 µg/mL for 22 h)	Relative Amount of LPS (TNF-α) (TNF-α; RAW 264.7, compound 10 µM, TNF-α relative to LPS control = 100)	inhibition at 10 µM (IL-6)	IC50 ([6]; read-out: sPLA2-V IC50, mean ± SD, n = 3)
24.7 ± 1.59 µM	29.4 ± 1.73 µM	7.52 ± 1.42 µM	5.8 ± 1.1 µM	O=C(/C=C/c1ccc(F)cc1)c1cccc(/N=N/c2ccc(O)cc2)c1 [Compound C7, (E)-3-(4-Fluorophenyl)-1-(3-((E)-(4-hydroxyphenyl)diazenyl)phenyl) prop-2-en-1-one]	4.5 ± 1.7 µM	82.6 ± 1.2%	2.9 ± 1.7 µM	4.8 ± 1.6 µM	5.3 ± 1.5 µM	5 ± 1.4 µM	–	–	–	–
14.2 ± 1.32 µM	32.1 ± 1.4 µM	5.14 ± 1.27 µM	4.9 ± 0.9 µM	O=C(/C=C/c1ccc(F)cc1)c1cccc(/N=N/c2ccc(O)cc2O)c1 [Compound C8, (E)-1-(3-((E)-(2,4-Dihydroxyphenyl)diazenyl)phenyl)-3-(4-fluorophenyl) prop-2-en-1-one]	2.5 ± 7 µM	83.5 ± 1.2%	2.8 ± 0.6 µM	1.9 ± 0.7 µM	2.6 ± 0.5 µM	2.2 ± 0.5 µM	–	–	–	–
5.06 ± 1.2 µM	19.2 ± 1.52 µM	18.3 ± 1.27 µM	–	CN(C)c1ccc(/C=C/C(=O)c2cccc(/N=N/c3ccc(O)cc3)c2)cc1 [Compound C13, (E)-3-(4-(Dimethylamino)phenyl)-1-(3-((E)-(4-hydroxyphenyl)diazenyl)phenyl)prop-2-en-1-one]	7.8 ± 1.8 µM	90.6 ± 1.7%	7.4 ± 1.7 µM	8.7 ± 1.4 µM	8.4 ± 1.5 µM	6.6 ± 1.2 µM	–	–	–	–
7.04 ± 1.29 µM	5.14 ± 1.1 µM	11.5 ± 1.2 µM	–	CN(C)c1ccc(/C=C/C(=O)c2cccc(/N=N/c3ccc(O)cc3O)c2)cc1 [Compound C14, (E)-1-(3-((E)-(2,4-Dihydroxyphenyl)diazenyl)phenyl)-3-(4-(dimethylamino)phenyl) prop-2-en-1-one]	6.5 ± 1.4 µM	89.4 ± 2.1%	5.9 ± 1.9 µM	4.6 ± 1.7 µM	4.9 ± 1.6 µM	5.2 ± 1.3 µM	–	–	–	–
9.45 ± 1.67 µM	5.29 ± 1.1 µM	49.1 ± 2.69 µM	–	CN(C)c1ccc(/C=C/C(=O)c2cccc(/N=N\c3c(O)ccc4ccccc34)c2)cc1 [Compound C17, (E)-3-(4-(dimethylamino)phenyl)-1-(3-((Z)-(2-hydroxynaphthalen-1-yl)diazenyl)phenyl) prop-2-en-1-one]	9.2 ± 1.6 µM	87.2 ± 1.4%	7.5 ± 1.9 µM	2.5 ± 1.2 µM	8.8 ± 2.5 µM	5.6 ± 2.1 µM	–	–	–	–
8.29 ± 0.88 µM	3.2 ± 0.6 µM	40.2 ± 3.42 µM	–	CN(C)c1ccc(/C=C/C(=O)c2cccc(/N=N\c3ccc(O)c4ncccc34)c2)cc1 [Compound C18, (E)-3-(4-(dimethylamino)phenyl)-1-(3-((Z)-(8-hydroxyquinolin-5-yl)diazenyl)phenyl) prop-2-en-1-one]	6.7 ± 0.6 µM	88.4 ± 2.9%	6.4 ± 1.5 µM	6.4 ± 0.4 µM	8.8 ± 2.5 µM	6.3 ± 1.4 µM	71%	29	73%	–
